Laboratory results published in patent US10874638B2, “Methods and compositions for modulating hormone levels” (priority 2014, dated 2020).
pIC50: −log10 of the molar value. Like-named read-outs stand apart in the source and are kept apart here.

What was measured:
[1] = test system: ovariectomized mature female rats; assay: Ovariectomized mature female rat model; type: in vivo; details: for uterine wet weight decrease after OVX surgery / bone density decrease caused by OVX (uCT trabecular bone in the femur, pQCT distal femur): daily for 8 weeks, 17α-ethynylestradiol 0.03 mg/kg/day; for uterine wet weight decrease after OVX surgery: Compound 1 0.01, 0.05, 0.25 mg/kg (all doses); for bone density decrease caused by OVX (uCT trabecular bone in the femur, pQCT distal femur): Compound 1 0.01, 0.05, 0.25 mg/kg
Protocol: Ovariectomized mature female rats are used to characterize primarily bone activity of the compositions provided herein or the individual SERM or SARM compounds. A sham group is used as control. The model can be run in either maintenance mode where the animals are dosed one day after the ovariectomy or restoration mode where the animals are dosed seven to eight weeks after the surgery. The rats are scanned by dual energy x-ray absorptiometry and sorted into experimental groups based upon femoral bone mineral content (BMC). Three dosages of testing compositions/compounds are administered orally once a day for 4, 8, or 12 weeks and estradiol and testosterone are administered subcutaneously to the reference groups. Animals received subcutaneous injections of fluorochrome markers for bone histomorphometric analysis. Alizarian Red S was prepared as a 3% solution and given at a dose of 30 mg/kg at the time of the baseline scan. Calcein was administered 10 days and 3 days prior to necropsy.
Approximately 24 hours after the last dose, blood is collected and the gastrocnemius muscle, plantaris muscle, uterus, clitoral glands, clitoris and inguinal fat pads were isolated, blotted and weighed individually. The left femur and lumbar vertebra L5 are wrapped in saline-soaked gauze and stored at −20° C. for biochemical analysis. The right femur and lumbar vertebrae L3-L4 are collected and stored in 70% ethanol for histomorphometry. The right tibia is collected in formalin for histological analysis. The left tibia is collected on dry ice and stored at −20° C. for measurement of alkaline phosphatase activity.
BMC, bone mineral density (BMD) and bone length are measured by pDEXA on an entire femur. The coefficient of variation for repeated measurement of the isolated femur is less than 0.4% for the BMC and the BMD measurements. […] Serum osteocalcin, a marker for bone turnover, and alkaline phosphatase derived from the tibial periosteum are also measured. Whole femurs are collected for biomechanical analysis and thawed at room temperature prior to testing. Peak load and peak displacement are measured directly from the load cell and the crosshead, respectively. Stiffness is calculated from the slope of the linear region of the load/displacement curve. Lumbar vertebra L5 is also measured in the mechanical testing for bone strength.
Bone histomorphometry is performed to indicate growth of the new bone during the study. The section from the lumbar vertebral bodies is used for histomorphometric indices of cancellous bone, while the sections of the femur mid-shafts are used for histomorphometric indices of cortical bone.
Body weight, gastrocnemius weight and plantaris weight changes are measured indicating anabolic activity of the testing compositions/compounds on skeletal muscle. Inguinal fat pad weight is used as a representative fat pad to assess the effects of the testing compounds on body fat. Clitoral gland and clitoral weights are measured to assess the virilizing effect of drugs.
In the maintenance node of this model, (5R,6S)-6-phenyl-5-[4-(2-pyrrolidin-1-ylethoxy)phenyl]-5,6,7,8-tetrahydronaphthalen-2-ol (Compound 1) was dosed daily at 0 (sham), 0 (OVX), 0.01, 0.05, and 0.25 mg/kg for 8 weeks and 17α-ethynylestradiol was dosed at 0.03 mg/kg/day. […] Micro-computerized tomography (uCT) measured the density and connectivity of the trabecular bone in the femur and pQCT measured at the distal femur.
In the restoration mode of this osteopenic female rat model, 4-(2(R)-(1(S)-hydroxyl-2,2,2-trifluoroethyl)-pyrrolidinyl)-2-trifluoromethylbenzonitrile (Compound 2, Formula I, R^1═CF3, R^2═R^3═H) was dosed at 0 (sham), 0 (OVX), 0.03, 0.3, and 3 mg/kg orally for 12 weeks. […] Compound 2 suppressed cancellous bone turnover while increasing trabecular bone volume and increasing bone mineral density at the lumbar spine.
In the same experiment of Compound 2, another SARM compound, ostarine, was dosed at 0.03, 0.3, and 3 mg/kg/day orally for 12 weeks.

[2] = test system: intact cynomolgus male and female monkeys; assay: Intact cynomolgus monkey model; type: in vivo; details: females, Day 90
healthy male subjects = type: in vivo, human
Protocol: In a random, double-blind, placebo controlled study, Compound 1 was given orally to healthy male subjects age from 18 to 45 years. Subjects received either placebo or Compound 1 under fasted/fed conditions at single escalating doses of 0, 1, 3, 10, 30, and 100 mg. Total serum T level was determined at days 0, 1, 7, 14, 21, and 28.

[3] = test system: intact cynomolgus male and female monkeys; assay: Intact cynomolgus monkey model; type: in vivo; details: Day 90
Protocol: Intact cynomolgus male and female monkeys are used to assess of the effects of the compositions provided herein or the individual SERM or SARM compounds on hypothalamic-pituitary-gonadal axis and lipid profile. All animals are dosed via oral or nasol gavage once daily for consecutive days with either vehicle or testing articles of different doses. The first day of dosing is designated Day 1 for all animals. Blood samples are collected for analysis of LH, FSH, T, Estrodiol, total cholesterol, triglycerides, cortisol, and coagulation parameters included prothrombin time (PT) and activated partial thromboplastin time on Days −3 and end of the study.
In this model, Compound 2 was dosed at 0, 5, 50, 150, and 450 mg/kg/day for 14 days. […] In a separate study, the compound was dosed at 0, 3, 10, 30, 120, and 500 mg/kg/day for 30 days. […] Serum testosterone was suppressed in males as indicated by lower 75th, 50th, and 25th percentile values in samples from treated monkeys than vehicle controls.
In this model, Compound 1 was dosed at 0, 1, 5, and 15 mg/kg/day for 3 months.

ER = details: read-out: IC50 binding affinity to ER; cited from earlier work
postmenopausal women = details: cited from earlier work
[4] = biological target: T1, 5α-reductase type I isoenzyme (Homo sapiens, UniProt P18405); details: cited from earlier work
T1 sequence (P18405 1-259): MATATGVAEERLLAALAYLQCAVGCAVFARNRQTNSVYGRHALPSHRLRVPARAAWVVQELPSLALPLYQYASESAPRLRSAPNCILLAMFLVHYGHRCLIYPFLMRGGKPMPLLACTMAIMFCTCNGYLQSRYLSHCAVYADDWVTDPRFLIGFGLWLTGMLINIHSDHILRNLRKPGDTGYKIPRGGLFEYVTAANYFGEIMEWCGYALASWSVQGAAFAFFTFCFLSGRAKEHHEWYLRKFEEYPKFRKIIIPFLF

prostate DHT level = details: in clinic; up to; cited from earlier work
[5] = test system: orchidectomized male Sprague-Dawley rat; assay: Orchidectomized mature male rat model; details: based on AUC-activity relationship analysis
[6] = 100 mg fasted, single oral dose
[7] = OVX rat, subcutaneous reference

17α-ethynylestradiol
uterine wet weight decrease after OVX surgery ([1]; maintenance mode): completely blocked
bone density decrease caused by OVX (uCT trabecular bone in the femur, pQCT distal femur) ([1]; maintenance mode): prevent the bone density decrease

Oc1ccc2c(c1)CC[C@H](c1ccccc1)[C@@H]2c1ccc(OCCN2CCCC2)cc1 [Compound 1, (5R,6S)-6-phenyl-5-[4-(2-pyrrolidin-1-ylethoxy)phenyl]-5,6,7,8-tetrahydronaphthalen-2-ol]
serum cholesterol increase, of the corresponding Day −7 values ([2]; 1 mg/kg/day for 3 months): 26%
serum cholesterol increase, of the corresponding Day −7 values ([2]; 5 mg/kg/day for 3 months): 16%
Changes of T levels from baseline, Day 1 2 h (healthy male subjects; 1 mg fasted, single oral dose): 9.9%
Changes of T levels from baseline, Day 29 (healthy male subjects; 1 mg fasted, single oral dose): 18%
Changes of T levels from baseline, Day 1 2 h (healthy male subjects; 3 mg fasted, single oral dose): 13%
Changes of T levels from baseline, Day 22 (healthy male subjects; 3 mg fasted, single oral dose): 68%
Changes of T levels from baseline, Day 29 (healthy male subjects; 3 mg fasted, single oral dose): 50%
Changes of T levels from baseline, Day 1 2 h (healthy male subjects; 10 mg fasted, single oral dose): −0.5%
Changes of T levels from baseline, Day 15 (healthy male subjects; 10 mg fasted, single oral dose): 67%
Changes of T levels from baseline, Day 22 (healthy male subjects; 10 mg fasted, single oral dose): 81%
Changes of T levels from baseline, Day 29 (healthy male subjects; 10 mg fasted, single oral dose): 29%
Changes of T levels from baseline, Day 1 2 h (healthy male subjects; 30 mg fasted, single oral dose): −6.9%
Changes of T levels from baseline, Day 1 12 h (healthy male subjects; 30 mg fasted, single oral dose): −64%
Changes of T levels from baseline, Day 8 (healthy male subjects; 30 mg fasted, single oral dose): 39%
Changes of T levels from baseline, Day 15 (healthy male subjects; 30 mg fasted, single oral dose): 71%
Changes of T levels from baseline, Day 22 (healthy male subjects; 30 mg fasted, single oral dose): 78%
Changes of T levels from baseline, Day 29 (healthy male subjects; 30 mg fasted, single oral dose): 81%
Changes of T levels from baseline, Day 1 12 h (healthy male subjects; [6]): −50%
Changes of T levels from baseline, Day 8 (healthy male subjects; [6]): 84%
Changes of T levels from baseline, Day 15 (healthy male subjects; [6]): 104%
Changes of T levels from baseline, Day 22 (healthy male subjects; [6]): 92%
Changes of T levels from baseline, Day 29 (healthy male subjects; [6]): 114%
Changes of T levels from baseline, Day 1 12 h (healthy male subjects; 100 mg fed, single oral dose): −48%
Changes of T levels from baseline, Day 8 (healthy male subjects; 100 mg fed, single oral dose): 86%
Changes of T levels from baseline, Day 15 (healthy male subjects; 100 mg fed, single oral dose): 89%
Changes of T levels from baseline, Day 29 (healthy male subjects; 100 mg fed, single oral dose): 91%
stimulation of T production (pharmacokinetic/pharmacodynamic profile in men) (healthy male subjects; men): superior potency and prolonged mechanism of action
total serum T level (healthy male subjects; single escalating oral doses 1 to 100 mg): dose related increase
triglycerides ([3]; especially in males, 1, 5, 15 mg/kg/day for 3 months): significant increase
serum cholesterol increase, of the corresponding Day −7 values ([3]; females, 15 mg/kg/day for 3 months): 7.8%
serum cholesterol ([3]; males, 1, 5, 15 mg/kg/day for 3 months): did not change
beneficial effects in postmenopausal women (postmenopausal women): reduced risks of nonvertebral and vertebral fractures, ER-positive breast cancer, coronary heart disease, and stroke
bone strength on the lumbar vertebrae ([1]; maintenance mode, 8 weeks daily dosing): maintained the bone strength
uterine wet weight decrease after OVX surgery ([1]; maintenance mode): block the decrease but at much less extend
bone density decrease caused by OVX (uCT trabecular bone in the femur, pQCT distal femur) ([1]; maintenance mode): prevent the bone density decrease

CCC(=O)O[C@H]1CC[C@H]2[C@@H]3CCC4=CC(=O)CC[C@]4(C)[C@H]3CC[C@]12C [Testosterone propionate]
clitoral gland and clitoral weights (virilizing effect) ([1]; OVX rat, 1 mg/kg daily dose): significantly increases

C[C@]12CC[C@H]3[C@@H](CCC4=CC(=O)CC[C@@]43C)[C@@H]1CC[C@@H]2O [Testosterone, testosterone]
femur bending stiffness [1, 7]: increases
femur bending strength [1, 7]: does not significantly increase

CC(C)(C)NC(=O)[C@H]1CC[C@H]2[C@@H]3CC[C@H]4NC(=O)C=C[C@]4(C)[C@H]3CC[C@]12C [finasteride, N-(1,1-dimethylethyl)-3-oxo-(5α,17β)-4-azaandrost-1-ene-17-carboxamide]
pIC50 [4]: 7.38
reduction of prostate DHT level (prostate DHT level): 85-90%

C[C@](O)(COc1ccc(C#N)cc1)C(=O)Nc1ccc(C#N)c(C(F)(F)F)c1 [ostarine]
potency relative to Compound 2 (fold less) [5]: ~10 fold
exposure at maximal efficacy relative to Compound 2 ([1]; restoration mode, higher exposure = decreased potency): ~10 fold
